Source: paper PMC7007416 (Analytical and Bioanalytical Chemistry, 2019)

What was measured:
[1] = Permeability in static Transwell system; conditions: human
Experimental: (§1) The human colonic adenocarcinoma Caco-2 cell line was obtained from the American Type Culture Collection (ATCC, Manassas, VA, USA), and the human colon adenocarcinoma mucus-secreting HT29-MTX-E12 cell line was obtained from the European Collection of Authenticated Cell Cultures (ECACC, Salisbury, UK). Caco-2 cells were used at passage numbers 29–40, and HT29-MTX-E12 cells were used at passage numbers 52–70 for all experiments. Cells were cultured in DMEM containing 10% FBS, 1% NEAA and 1% penicillin-streptomycin and maintained at 37 °C in a 5% CO2-humidified air atmosphere and subcultured every 2 days to 3 days similar to the study of Abdelkhaliq et al.. For permeability experiments, cells were seeded at a density of 40,000 cells/cm^2 on a polycarbonate Transwell insert (area 0.6 cm^2, 0.4 μm pore size; Millipore) as follows: Caco-2 and HT29-MTX-E12 cells were seeded in a 3:1 ratio on the apical side of the Transwell system and allowed to attach for 24 h. After 24 h, cell culture medium was refreshed every 2–3 days and Transwell systems were used for permeability experiments following 21 days of culturing.
(§2) HEPES is added because the experiments with the flow-through Transwell systems are performed outside of a CO2-controlled incubator, and for the sake of comparability, it is added to the static Transwell systems as well. […]

[2] = test system: monolayer of Caco-2/HT29-MTX cells; experiment: Permeability in dynamic flow-through Transwell system, offline analysis; conditions: dynamic vs static, ergotamin(in)e 10 μg/mL
Experimental: as §1, §2

[3] = test system: monolayer of Caco-2/HT29-MTX cells; experiment: Permeability in static Transwell system; conditions: static experiments, ergotamin(in)e 10 μg/mL apical
Experimental: as §1, §2

[4] = test system: monolayer of Caco-2/HT29-MTX cells
Experimental: as §1

[5] = test system: Caco-2 and HT29-MTX-E12 cells (ratio 3:1)
Experimental: With the WST-1 assay, mitochondrial activity of the cell is measured by the conversion of WST-1 into formazan dye by mitochondrial dehydrogenase enzymes. The assay is performed as follows: Caco-2 and HT29-MTX-E12 cells (ratio 3:1) were seeded in Greiner Bio-One (Alphen aan den Rijn, The Netherlands) flat-bottom 96-well plates at a concentration of 1 × 10^5 cells/mL in cell culture medium (100 μL/well). Plates were incubated for 24 h at 37 °C under 5% CO2. […] Then, the exposure medium containing (dilutions of) the compounds of interest was discarded and the cells were washed with pre-warmed HBSS. Subsequently, WST-1 reagent (in cell culture medium without phenol red) was added to the cells (1:10, 100 μL/well). After 1.5 h of incubation at 37 °C, the absorbance of each well was measured at 440 nm using a Bio-Tek (Winooski, VT, USA) Synergy HT Multi-Mode microplate reader.

[6] = test system: monolayer of Caco-2/HT29-MTX cells; experiment: Lucifer yellow cell barrier integrity test; assay type: in vitro ADME, human; conditions: 500 μg/mL apical, 30 min, after permeability experiments (day 21); average
Experimental: Barrier integrity was evaluated similar to the study of Hubatsch et al., and cells were cultured on a Transwell membrane for 21 days and subsequently stained for tight junction protein ZO-1 and the cell nuclei. For this, the cells were washed with PBS and fixed with 4% paraformaldehyde (w/v) for 15 min. Cells were permeabilized with 0.25% Triton X-100 (v/v) and blocked with 1% BSA (w/v). The cells were then incubated with the conjugated antibody ZO-1/TJP1-Alexa Fluor 594 for 45 min (10 μg/mL). Subsequently, DAPI was used to stain the nuclei for 10 min (5 μg/mL). Between incubations, cells were washed with PBS three times. Cells were mounted in a 120-μm spacer (Sigma-Aldrich) on a microscope slide (Thermo Scientific) with ProLong Diamond Antifade Mountant. Slides were then examined using a Zeiss (Jena, Germany) LSM 510 META confocal microscope. Samples were excited with 405-nm and 543-nm lasers, and the pinholes were in the range of 90–94 μm at a magnification of × 40. Cell layer integrity was also evaluated using the transport marker Lucifer yellow. […] Cell culture medium was collected from the apical and basolateral sides at t = 0 and t = 30 min and analysed for fluorescence at 458 nm/530 nm using a Bio-Tek Synergy HT Multi-Mode microplate reader. […]

With `CN1C[C@H](C(=O)N[C@]2(C)O[C@@]3(O)[C@@H]4CCCN4C(=O)[C@H](Cc4ccccc4)N3C2=O)C=C2c3cccc4[nH]cc(c34)C[C@H]21` [ergotamine] as the compound, how does the Papp at 180 min, 10 μg/mL [1] read?
The Papp at 180 min, 10 μg/mL was 8.6 ± 1.2 ×10⁻⁶ cm/s.

Which results are given for `CN1C[C@@H](C(=O)N[C@]2(C)O[C@@]3(O)[C@@H]4CCCN4C(=O)[C@H](Cc4ccccc4)N3C2=O)C=C2c3cccc4[nH]cc(c34)C[C@H]21` [ergotaminine]?
permeability, times lower in the dynamic experiments compared to the static experiments [2]: 5 times; apparent permeability coefficient [3]: 50.2 ± 5.8 × 10^−6 cm/s

Which “cell-induced product formation on the basolateral side” value [4] does the source give for `CN1C2CCCC1CC(NC(=O)c1nn(C)c3ccccc13)C2` (centres unmarked) [granisetron, Granisetron] here?
Its value is “no cell-induced products were detected”.

And the “translocated across the in vitro intestinal barrier, cumulative % of the apical concentration” value ([4]; human, 3 h)?
Its value is 13.1%.

And the non-toxic concentration ([5]; human, 24 h)?
The non-toxic concentration was 10 µg/mL.

For Lucifer yellow, which “Lucifer yellow permeability (percentage of the apical concentration)” value [6] is on record?
The value was 0.18% ± 0.06.

For Triton X-100, which cell viability ([5]; positive control, Triton X-100 0.25% v/v, percentage of negative control) is on record?
The cell viability was 0.4% ± 0.3.
